Assay results published in ChEMBL document CHEMBL1201862, “PubChem BioAssay data set” (2004).
Activity calls are given as the source filed them.

Assays:
[1] = biological target: T1, Mannose-6-phosphate isomerase (Homo sapiens, UniProt P34949); test: inhibitors of human PMI, primary screen, biochemical, fluorescence intensity, coupled assay (AID 1209)
T1 sequence (P34949 whole entry): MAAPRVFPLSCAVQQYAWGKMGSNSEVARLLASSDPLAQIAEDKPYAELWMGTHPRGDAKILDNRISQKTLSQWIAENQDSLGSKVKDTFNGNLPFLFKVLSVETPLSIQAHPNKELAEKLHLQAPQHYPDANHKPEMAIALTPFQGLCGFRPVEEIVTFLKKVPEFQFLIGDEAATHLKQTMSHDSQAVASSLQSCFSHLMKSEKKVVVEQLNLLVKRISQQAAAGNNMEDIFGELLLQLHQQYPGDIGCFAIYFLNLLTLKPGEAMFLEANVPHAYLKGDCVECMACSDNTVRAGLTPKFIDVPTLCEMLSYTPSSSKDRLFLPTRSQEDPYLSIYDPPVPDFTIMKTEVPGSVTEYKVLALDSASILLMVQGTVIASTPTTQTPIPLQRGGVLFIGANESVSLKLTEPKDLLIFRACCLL

Aspartyl aminopeptidase = biological target: T2, Aspartyl aminopeptidase (Plasmodium falciparum 3D7, UniProt Q8I2J3); test: Counterscreen for inhibitors of M1 and M17 aminopeptidases: QFRET-based biochemical high throughput dose response assay for inhibitors of the Plasmodium falciparum M18 Aspartyl Aminopeptidase (PFM18AAP). [Related PubChem assays: 1619 (Screening assay (M17LAP inhibitors).), 1445 (Screening assay (M1AAP inhibitors).)]
T2 sequence (Q8I2J3 whole entry): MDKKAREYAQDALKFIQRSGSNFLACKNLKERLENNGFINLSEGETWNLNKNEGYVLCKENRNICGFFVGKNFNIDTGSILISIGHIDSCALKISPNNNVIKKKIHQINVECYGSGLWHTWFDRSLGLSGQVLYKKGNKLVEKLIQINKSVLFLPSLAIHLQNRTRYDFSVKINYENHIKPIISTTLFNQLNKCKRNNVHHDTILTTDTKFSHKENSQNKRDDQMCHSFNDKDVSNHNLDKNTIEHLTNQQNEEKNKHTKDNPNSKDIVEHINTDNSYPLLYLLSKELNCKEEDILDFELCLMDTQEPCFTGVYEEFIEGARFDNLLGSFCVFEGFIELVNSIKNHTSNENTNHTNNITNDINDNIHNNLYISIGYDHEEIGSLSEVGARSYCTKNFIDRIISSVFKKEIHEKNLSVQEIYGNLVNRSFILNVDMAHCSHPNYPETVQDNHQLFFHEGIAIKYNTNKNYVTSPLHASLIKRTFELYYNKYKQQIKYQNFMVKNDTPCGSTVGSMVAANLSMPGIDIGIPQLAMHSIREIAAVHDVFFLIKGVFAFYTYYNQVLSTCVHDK

Procathepsin L = Procathepsin L (Homo sapiens, UniProt P07711); test: cathepsin L inhibitors, dose response, counter-screen for M1/M17 aminopeptidase inhibitor project, biochemical, QFRET, 1536-well (AID 2214)
Chain of Procathepsin L (P07711 whole entry): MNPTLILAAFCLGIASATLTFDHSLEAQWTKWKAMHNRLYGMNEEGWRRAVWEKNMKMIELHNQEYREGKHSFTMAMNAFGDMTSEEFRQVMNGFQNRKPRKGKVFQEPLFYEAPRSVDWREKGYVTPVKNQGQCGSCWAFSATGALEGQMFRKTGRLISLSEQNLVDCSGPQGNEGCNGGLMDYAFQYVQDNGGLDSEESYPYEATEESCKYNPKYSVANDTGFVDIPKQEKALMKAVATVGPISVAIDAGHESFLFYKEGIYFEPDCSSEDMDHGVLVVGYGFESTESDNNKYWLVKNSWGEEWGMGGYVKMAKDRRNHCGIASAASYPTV

Leucine aminopeptidase = biological target: T3, Leucine aminopeptidase (Plasmodium falciparum 3D7, UniProt Q8IL11); test: P. falciparum M17LAP inhibitors, primary screen, biochemical, fluorogenic H-Leu-NHMec substrate, 1536-well (AID 1619); type: functional
T3 sequence (Q8IL11 whole entry): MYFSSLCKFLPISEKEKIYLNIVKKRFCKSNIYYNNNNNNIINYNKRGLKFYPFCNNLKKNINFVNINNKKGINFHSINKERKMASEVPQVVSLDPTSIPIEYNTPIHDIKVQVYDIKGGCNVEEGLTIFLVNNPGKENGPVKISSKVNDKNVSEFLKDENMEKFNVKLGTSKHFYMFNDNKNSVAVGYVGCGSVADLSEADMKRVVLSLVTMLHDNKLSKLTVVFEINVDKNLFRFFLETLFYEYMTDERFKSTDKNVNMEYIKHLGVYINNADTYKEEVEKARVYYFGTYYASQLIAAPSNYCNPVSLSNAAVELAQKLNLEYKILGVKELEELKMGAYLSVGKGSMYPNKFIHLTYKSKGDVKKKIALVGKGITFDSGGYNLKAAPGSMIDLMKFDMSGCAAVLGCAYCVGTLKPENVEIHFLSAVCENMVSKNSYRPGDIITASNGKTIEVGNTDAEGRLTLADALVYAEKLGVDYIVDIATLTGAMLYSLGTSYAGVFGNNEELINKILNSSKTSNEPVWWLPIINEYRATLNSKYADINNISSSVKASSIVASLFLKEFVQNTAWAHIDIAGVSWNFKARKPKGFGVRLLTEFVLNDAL

[2] = HEp-2 cell cytotoxicity, dose response, cytotoxicity control for RSV inhibitor project, HTS (AID 2410); type: functional; settings: human respiratory syncytial virus
Estrogen receptor = biological target: T4, Estrogen receptor (Homo sapiens, UniProt P03372);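 note: potency for inhibiting coactivator peptide recruitment to the receptor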
T4 sequence (P03372 whole entry): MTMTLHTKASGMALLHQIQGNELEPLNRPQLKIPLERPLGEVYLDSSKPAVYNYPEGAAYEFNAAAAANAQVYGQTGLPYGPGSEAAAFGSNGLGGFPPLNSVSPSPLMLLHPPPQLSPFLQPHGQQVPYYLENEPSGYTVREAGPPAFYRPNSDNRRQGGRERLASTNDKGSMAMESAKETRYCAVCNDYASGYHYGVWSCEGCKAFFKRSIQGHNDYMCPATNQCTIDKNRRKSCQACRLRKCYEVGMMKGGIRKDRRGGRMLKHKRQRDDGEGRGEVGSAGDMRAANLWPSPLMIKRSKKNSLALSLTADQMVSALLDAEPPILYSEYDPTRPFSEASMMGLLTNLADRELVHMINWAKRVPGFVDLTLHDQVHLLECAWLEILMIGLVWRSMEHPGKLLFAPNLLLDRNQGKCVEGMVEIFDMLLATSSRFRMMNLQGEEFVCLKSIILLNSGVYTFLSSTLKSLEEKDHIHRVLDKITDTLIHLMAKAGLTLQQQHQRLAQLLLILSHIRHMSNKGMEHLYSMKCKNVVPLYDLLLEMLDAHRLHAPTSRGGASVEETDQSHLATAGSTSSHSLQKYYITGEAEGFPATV

HT-1080 = test: cytotoxicity in HT1080 fibrosarcoma cells, cell-based, fluorescence readout (AID 620); type: functional; settings: Homo sapiens

| Structure (SMILES) | IC50 (Aspartyl aminopeptidase) | IC50 (Procathepsin L) | IC50 (Leucine aminopeptidase) | further results |
| --- | --- | --- | --- | --- |
| Cn1c(=O)c([N+](=O)[O-])c(Oc2ccccc2)c2ccccc21 |  |  |  | IC50 [1]: > 50 µM (not active) |
| Cc1ccc(-n2c(C)cc(C(=O)COC(=O)c3ccc[nH]c3=O)c2C)cc1C | > 73.5 µM (not active) | > 59.6 µM (not active) | 1.45 µM (active) |  |
| CC1=C(C)CC(C(=O)Nc2cccc([N+](=O)[O-])c2)C(C(=O)O)C1 (stereo not given) | > 73.5 µM (not active) | > 59.6 µM (not active) | 6.42 µM (active) |  |
| O=C(CSc1nccc(O)n1)Nc1ccc(Br)c(Cl)c1 | > 73.5 µM (not active) | > 59.6 µM (not active) | 2.5 µM (active) |  |
| CC(=O)c1ccc2c(c1)C1C=CCC1C(c1ccc(S(=O)(=O)N3CCOCC3)cc1)N2 (stereo not given) |  |  |  | IC50 (cells): 22.5 µM (active); CC50 [2]: 17.2 µM (active) |
| COc1ccc(Cl)cc1NC(=O)c1oc(C)nc1C |  |  |  | IC50 (Estrogen receptor): > 50 µM (not active) |
| N#Cc1nc(-c2ccc(OCc3ccc(Cl)cc3)cc2)oc1NCc1cccnc1 |  |  |  | IC50 (Estrogen receptor): 37.4 µM (not active) |
| O=C(NC1=NC2CCCCC2N1)c1ccccc1 (stereo not given) |  |  |  | EC50 (HT-1080): > 50 µM (not active) |
